Laboratory results: the Bradley open melting point set (2014)

| SMILES | melting point |
| --- | --- |
| Cc1nc(C)c(C)nc1C [Tetramethylpyrazine] | 85 °C |
| C#CC(C)(C)O [2-methyl-3-butyn-2-ol] | 3 °C |
| N=C(N)NCCC[C@@H](N)C(=O)O [D-arginine] | 235 °C |
| N[C@@H](CCC(=O)O)C(=O)O [L-Glutamic Acid] | 224 °C |
| Nc1ccc(Br)cc1 [4-Bromoaniline] | 66 °C |
| COC(=O)c1sc(Br)c(Br)c1O [methyl 4,5-dibromo-3-hydroxythiophene-2-carboxylate] | 127 °C |
| C[C@H]1O[C@@H](O[C@H]2[C@@H](O)C[C@H](O[C@H]3[C@@H](O)C[C@H](O[C@H]4CC[C@@]5(C)[C@H](CC[C@@H]6[C@@H]5C[C@@H](O)[C@]5(C)C(C7=CC(=O)OC7)CC[C@]65O)C4)O[C@@H]3C)O[C@@H]2C)C[C@H](O)[C@@H]1O (stereo not given in full) [Digoxin] | 249 °C |
| O=C4\C=C2/[C@]([C@H]1CC[C@@]3([C@@](O)(C(=O)CO)CC[C@H]3[C@@H]1CC2)C)(C)CC4 [cortexolone] | 208 °C |
| Cc1ccc([N+](=O)[O-])cc1 [4-nitrotoluene] | 53 °C |
| Clc1cc(Cl)c(Cl)c(Cl)c1Cl [Pentachlorobenzene] | 85 °C |
| CC(Br)C(Br)C(=O)O (stereo not given) [2,3-dibromobutyric acid] | 86 °C |
| CC1(O)CCCCC1 [1-methylcyclohexanol] | 26 °C |
| CCC1(CC)C(=O)NCC(C)C1=O (stereo not given) [methyprylon] | 75.5 °C |
| COC(F)(F)C(Cl)Cl [Methoxyflurane] | -35 °C |
| Cc1sc2ccccc2c1CC1=NCCN1 [metizoline] | 156 °C |
| CCC#CCCCC [3-octyne] | -104 °C |
| OC1OC[C@@H](O)[C@H](O)[C@H]1O (stereo partly drawn) [D-xylose] | 149 °C |
| CC(C)(C)C1CCC(=O)CC1 [4-tert-butylcyclohexanone] | 49 °C |
| Oc1ccc(Cl)cc1Cc1cc(Cl)ccc1O [2,2'-methylenebis(4-chlorophenol)] | 174 °C |

| SMILES | melting point |
| --- | --- |
| CC(=O)OCC(OC(C)=O)C(OC(C)=O)C(OC(C)=O)C(OC(C)=O)C(=O)CBr (stereo not given) [3,4,5,6,7-penta-O-acetyl-1-bromo-1-deoxyhept-2-ulose] | 124 °C |
| CC(C)C#N [2-Methylpropanenitrile] | -72 °C |
| Cc1ccc(N)c([N+](=O)[O-])c1 [4-methyl-2-nitroaniline] | 117 °C |
| Fc1ccc(-c2ccc(F)cc2)cc1 [4,4'-difluorobiphenyl] | 88 °C |
| O=C(O)[C@H](O)[C@@H](O)C(=O)O [(2R,3R)-2,3-Dihydroxysuccinic acid] | 171 °C |
| Cc1cccc(N)c1C [2,3-dimethylaniline] | 2 °C |
| NC1=NCCS1 [2-amino-2-thiazoline] | 80 °C |
| CC1(C)CCCC(C)(C)N1 [2,2,6,6-tetramethylpiperidine] | -59 °C |
| c1csc(P(c2cccs2)c2cccs2)c1 [tris(2-thienyl)phosphine] | 29 °C |
| N#Cc1ccc(O)cc1 [4-Hydroxybenzonitrile] | 112 °C |
| CCOC(=O)C(C#N)=NO [ethyl isonitrosocyanoacetate] | 130 °C |
| NCCCCCCO [6-Aminohexan-1-ol] | 56 °C |
| NC(=O)c1ccncc1 [isonicotinamide] | 157 °C |
| COC [Dimethyl ether] | -138 °C |
| c1ccc2cc3cc4ccccc4cc3cc2c1 [Naphthacene] | 357 °C |
| O=C(O)CCSCCC(=O)O [3,3'-thiodipropionic acid] | 131 °C |
| O=c1[nH]cc(F)c(=O)[nH]1 [Fluorouracil] | 281 °C |
| O=C1c3c(N(\C=C1\C(=O)O)CC)cc2OCOc2c3 [oxolinic acid] | 315 °C |
| CC(C)(C)OC(=O)N1CCCCC1=O [1-boc-2-piperidone] | 36 °C |

Second part, the compound after the results:

| melting point | SMILES |
| --- | --- |
| 86 °C | O=C(N[C@H](Cc1ccccc1)C(=O)O)OCc1ccccc1 [N-benzyloxycarbonyl-D-phenylalanine] |
| 49 °C | Cc1cccc(C)c1O [2,6-Dimethylphenol] |
| 97 °C | CCc1ccccc1B(O)O [2-ethylbenzeneboronic acid] |
| 33 °C | COC(=O)c1cccc(Br)c1 [methyl_3-bromobenzoate] |
| 6 °C | O=C(CO)c1ccccc1 [2-hydroxyacetophenone] |
| 197 °C | O=C(O)Cc1nn(Cc2nc3cc(C(F)(F)F)ccc3s2)c(=O)c2ccccc12 [zopolrestat] |
| 162 °C | CC(C)NCC(O)COc1cccc2ccccc12 (stereo not given) [propranolol] |
| 2 °C | Cc1c(C)c2c(c(C)c1O)CC[C@@](C)(CCC[C@H](C)CCC[C@H](C)CCCC(C)C)O2 [Vitamin E] |
| 74 °C | CN(C)c1ccc(C=O)cc1 [4-(Dimethylamino)benzaldehyde] |
| 283 °C | Oc1ncc(F)c(O)n1 [5-Fluorouracil] |
| 131 °C | COC(=O)c1ccc(O)cc1 [methyl-p-hydroxybenzoate] |
| 143 °C | CC(C)(C)OC(=O)NC(CC(=O)O)c1ccccc1F (stereo not given) [3-(boc-amino)-3-(2-fluorophenyl)propionic acid] |
| 184 °C | Oc1cccc(C2CNCCN2)c1 (stereo not given) [3-(2-piperazinyl)phenol] |
| 81 °C | CCCCCCCCCCCCCCCCCCN1c2ccccc2C(C)(C)C12C=Cc1cc([N+](=O)[O-])ccc1O2 (stereo not given) |
| 132 °C | CC(C)(C)OC(=O)NCCCC[C@H](NC(=O)OCC1c2ccccc2-c2ccccc21)C(=O)O |
| 103 °C | COc1ccc(-c2ccc(S(=O)(=O)Cl)cc2)cc1 [4'-methoxybiphenyl-4-sulfonyl chloride] |

| melting point | SMILES |
| --- | --- |
| 183 °C | C#C[C@]1(O)CC[C@H]2[C@@H]3CCc4cc(O)ccc4[C@H]3CC[C@@]21C [Ethinyl Estradiol] |
| -43 °C | CCc1ccc(CC)cc1 [1,4-diethylbenzene] |
| 145 °C | CN(C)c1ccc(C(=O)Cl)cc1 [4-dimethylaminobenzoyl chloride] |
| 137 °C | CCS(=O)(=O)c1ccc(B(O)O)cc1 [4-(ethylsulfonyl)benzeneboronic acid] |
| 202 °C | Nc1ccc(S(=O)(=O)Nc2nccs2)cc1 [sulfathiazole] |
| 196 °C | CN(C)CCC=C1c2ccccc2CCc2ccccc21 [amitriptyline] |
| 134 °C | O=C(O)c1ccccc1Nc1cccc(C(F)(F)F)c1 [Flufenamic Acid] |
| 156 °C | N#CC(=CNNc1ccccc1)c1ccccc1 [2-phenyl-3-(2-phenylhydrazino)prop-2-enenitrile] |
| 105 °C | CCCCc1ccc(B(O)O)cc1 [4-n-butylbenzeneboronic acid] |
| 111 °C | COc1ccc(OCC(=O)O)cc1 [4-methoxyphenoxyacetic acid] |
| 168 °C | Brc1ccc(-c2cccc(Br)n2)cn1 [6,6'-dibromo-2,3'-bipyridine] |
| 70 °C | Nc1ccc(I)cc1Cl [2-chloro-4-iodoaniline] |
| 30 °C | COc1ccccc1-c1ccccc1 [2-methoxybiphenyl] |
| 56 °C | CCOC(=O)c1cccc(C#N)c1 [ethyl_m-cyanobenzoate] |
| 275 °C | O=[N+]([O-])c1ccc(N/N=C2/Cc3c2ccc2ccccc32)c([N+](=O)[O-])c1 |
| 185 °C | Oc1ccccc1-c1ccno1 [2-(5-isoxazolyl)phenol] |
